Experimental data: the supplement of paper PMC10307832

Tests used:
Experiment in all cases: relative viability (nuclei count vs DMSO), 5 days (fraction); higher = more cells survive
[1] = compound: COC1=C(C=C(C=C1)C2=CC3=NC=CN3C(=N2)NC4=C(C=CC=N4)C(=O)N)OC [BAY61-3606] + Nc1nc2[nH]cc(CCc3ccc(C(=O)N[C@@H](CCC(=O)O)C(=O)O)cc3)c2c(=O)[nH]1 [Pemetrexed] (partner 0.2 µM)
How it was run: (§1)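 The day after seeding in 1536-well plates, lung cancer cell lines were treated by pin tool with a single drug, or with a fixed anchor-drug dose together with five library-drug doses (not always all listed) in √10 steps. After 5 days, a combined fix-and-stain solution (final 0.05% Triton X-100, 1% formaldehyde, 1 ug/ml Hoechst) was added. Nuclei counted on 4× images gave relative viability as treated counts over vehicle counts, reported as the median of duplicate plates.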

[2] = compound: COc1cccc2c1C(=O)c1c(O)c3c(c(O)c1C2=O)C[C@@](O)(C(=O)CO)C[C@@H]3O[C@H]1C[C@H](N)[C@H](O)[C@H](C)O1 [Doxorubicin] + N=C(N)NC(=N)NCCc1ccccc1 [Phenformin] (partner 250 µM)
How it was run: as §1

[3] = compound: COC1=C(C=C(C=C1)C2=CC3=NC=CN3C(=N2)NC4=C(C=CC=N4)C(=O)N)OC [BAY61-3606] + Cc1cc(Nc2cc(N3CCN(C)CC3)nc(Sc3ccc(NC(=O)C4CC4)cc3)n2)n[nH]1 [Tozasertib] (partner 0.1 µM)
How it was run: as §1

[4] = compound: COC1=C(C=C(C=C1)C2=CC3=NC=CN3C(=N2)NC4=C(C=CC=N4)C(=O)N)OC [BAY61-3606] + NC(=O)Nc1cc(-c2cccc(F)c2)sc1C(=O)N[C@H]1CCCNC1 [AZD7762] (partner 0.2 µM)
How it was run: as §1

Row | Cell Line | relative viability ([1]; first compound 0.02 µM) | relative viability ([1]; first compound 0.06325 µM) | relative viability ([1]; first compound 0.2 µM) | relative viability ([1]; first compound 0.6325 µM) | relative viability ([1]; first compound 2 µM) | relative viability ([2]; first compound 0.001 µM) | relative viability ([2]; first compound 0.003162 µM) | relative viability ([2]; first compound 0.01 µM) | relative viability ([2]; first compound 0.03162 µM) | relative viability ([2]; first compound 0.1 µM) | relative viability ([3]; first compound 0.02 µM) | relative viability ([3]; first compound 0.06325 µM) | relative viability ([3]; first compound 0.2 µM) | relative viability ([3]; first compound 0.6325 µM) | relative viability ([3]; first compound 2 µM) | relative viability ([4]; first compound 0.02 µM) | relative viability ([4]; first compound 0.06325 µM) | relative viability ([4]; first compound 0.2 µM) | relative viability ([4]; first compound 2 µM) | relative viability ([4]; first compound 0.6325 µM)
1 | NCI-H1563 | 0.894 | 0.745 | 0.669 | 0.84 | 0.712 | 0.618 | 0.573 | 0.546 | 0.524 | 0.501 |  |  |  |  |  |  |  |  |  | 
2 | NCI-H1623 |  |  |  |  |  | 0.533 | 0.561 | 0.575 | 0.528 | 0.502 | 0.485 | 0.439 | 0.458 | 0.394 | 0.328 |  |  |  |  | 
3 | NCI-H1648 | 0.803 | 0.622 | 0.79 |  | 0.874 |  |  |  |  |  | 0.376 | 0.356 | 0.448 | 0.408 | 0.231 | 0.723 | 0.696 | 0.777 | 0.643 | 
4 | NCI-H1650 | 0.351 | 0.356 | 0.42 | 0.46 | 0.331 | 0.365 | 0.35 | 0.222 | 0.126 | 0.11 | 0.362 | 0.265 | 0.264 | 0.329 | 0.204 |  |  |  |  | 
5 | NCI-H1703 |  |  |  |  |  |  |  |  |  |  |  |  |  |  |  | 0.119 |  |  | 0.137 | 0.108
6 | NCI-H1792 | 1.07 | 1.09 | 0.852 | 0.771 | 0.614 |  | 0.299 | 0.262 | 0.337 | 0.19 |  |  |  |  |  | 0.783 | 0.538 | 0.802 | 0.455 | 0.62
7 | NCI-H2009 | 1 | 1.01 | 1.02 | 0.918 | 0.91 | 0.483 | 0.482 | 0.481 | 0.414 | 0.275 | 0.847 | 0.648 | 0.67 | 0.651 | 0.511 |  |  |  |  | 
8 | NCI-H2023 | 0.263 | 0.257 | 0.212 | 0.246 | 0.157 | 0.431 | 0.398 | 0.321 | 0.126 | 0.0808 | 0.359 | 0.225 | 0.232 | 0.197 | 0.118 |  |  |  |  | 
9 | NCI-H2228 | 0.326 | 0.325 | 0.391 | 0.393 | 0.369 | 0.284 | 0.312 | 0.242 | 0.107 | 0.118 | 0.274 | 0.173 | 0.147 | 0.16 | 0.159 |  |  |  |  | 
10 | SK-LU-1 | 0.974 | 1.02 | 1.01 | 0.968 | 0.661 | 0.367 | 0.558 | 0.449 | 0.226 | 0.173 | 0.315 | 0.282 | 0.264 | 0.231 | 0.2 |  |  |  |  | 
11 | SK-MES-1 | 1.03 | 0.909 | 0.869 | 0.88 | 0.713 | 0.655 | 0.648 | 0.612 | 0.285 | 0.222 | 0.889 | 0.819 | 0.623 | 0.61 | 0.135 |  |  |  |  | 
12 | SW 1573 | 0.924 | 0.833 | 0.804 | 0.916 | 0.53 | 0.337 | 0.355 | 0.216 | 0.111 | 0.0738 | 0.168 | 0.174 | 0.154 | 0.197 | 0.146 |  |  |  |  | 
